In US8710095B2, “Drugs for prophylaxis or mitigation of taxane-induced neurotoxicity” (Bionumerik Pharmaceuticals, Inc., priority 2002, dated 2014):
“Also recorded” adds a separate entry of the source.

Tests used:
female Wistar rats = test: Paclitaxel-induced abnormal thermoesthesia, latent period for pseudo pain reactions (hot water bath 45° C.); format: in vivo, rat
Experimental: Paclitaxel was intravenously administered at a dose of 6 mg/kg once daily to female Wistar rats (8 rats per group) (the initial dosage date was defined as day 0). Treatment was repeated five times every other day.
The efficacy of 2,2′-dithiobis ethane sulfonate on the abnormal thermoesthesia occurring in response to the paclitaxel therapy was assessed using, as an index, a latent period for pseudo pain reactions. […] Each pseudo pain reaction-related latent period was measured on the day before the initial paclitaxel dosage (day −1, pretreatment), and daily for three days from the next day after the final paclitaxel dosage (from days 9 to 11, post-treatment), i.e., totally four times.
2,2′-dithiobis ethane sulfonate was, dissolved in water for injection to make its concentration 200 mg/ml upon use and the 2,2′-dithiobis ethane sulfonate solution thus prepared was intravenously administered at the dose of 500 mg/kg or 1,000 mg/kg immediately before the paclitaxel administration.

[1] = tested on: patients with advanced solid tumors; test: Phase I study in the United States: 2,2′-dithiobis ethane sulfonate with paclitaxel and cisplatin, incidence of neurotoxicity; format: in vivo, human; settings: United States (n = 36), all doses 4.1 to 41.0 g/m^2
Experimental: In the Phase I study in the United States, human patients in Stage I received the following treatment regimen every 3 weeks: a single dose of paclitaxel (175 mg/m^2) administered intravenously over 3 hours, pre-cisplatin saline hydration (1000 mL 0.9% NaCl) for 2 hours, followed immediately by a single dose of 2,2′-dithiobis ethane sulfonate (4.1, 8.2, 12.3, 18.4, 27.6 and 41.0 g/m^2, depending on cohort assignment) administered intravenously over 15 or 30 minutes, a single dose of cisplatin (75 mg/m^2) administered intravenously over 1 hour and subsequently post-cisplatin saline hydration (500 cc 0.9% NaCl) for 1 hour.
A total of 36 patients (22 patients in Stage I and 14 patients in Stage II) with advanced solid tumors have been enrolled and treated in this study at two clinical sites in the United States. A total of 138 treatment courses of BNP7787 with chemotherapy were given to 36 patients giving an average number of 3.8 treatment cycles per patient. A total of 13 patients (36.1%) completed at least five treatment cycles while 5 patients (13.9%) completed at least seven treatment cycles.
(§1) The number and percentage of patients who reported neurotoxicity in the Phase I studies compared with historical control data are summarized on the next page. Severity grades were measured according to NCI-CTC standards.

[2] = tested on: patients with advanced Non-Small Cell Lung Cancer (NSCLC); test: Phase I study in Japan: 2,2′-dithiobis ethane sulfonate with paclitaxel and cisplatin, incidence of neurotoxicity; format: in vivo, human; settings: Japan (NSCLC) (n = 19), all doses 4.1 to 41.0 g/m^2
Experimental: In the Phase I study in Japan, patients received the following treatment regimen every 3 weeks: a single dose of paclitaxel (175 mg/m^2) administered intravenously over 3 hours, pre-cisplatin saline hydration for 1 hour, immediately followed by a single dose of 2,2′-dithiobis ethane sulfonate (4.1, 8.2, 12.3, 18.4, 27.6 and 41.0 g/m^2, depending on cohort assignment) administered intravenously over 30 minutes, a single dose of cisplatin (75 mg/m^2) administered intravenously over 1 hour and subsequently post-cisplatin saline hydration for 1.5 hours.
A total of 19 patients with advanced Non-Small Cell Lung Cancer (NSCLC) have been enrolled and treated in this study at four clinical sites in Japan. Each patient was to receive a total of three treatment cycles during this study. A total of 43 treatment courses of 2,2′-dithiobis ethane sulfonate with chemotherapy were given to 19 patients giving an average of 2.3 treatment cycles per patient. A total of 11 patients (57.9%) completed all three treatment cycles while 8 patients (42.1%) discontinued therapy prior to completing the three treatment cycles.
as §1

[3] = tested on: patients in the Phase I studies (US & Japan); test: US & Japan Phase I studies overall, incidence of neurotoxicity; format: in vivo, human
Experimental: Human clinical trials have been conducted in the United States, Europe and Japan regarding the safety and efficacy of the agents that make up this invention. These trials are ongoing. The following is a summary of the results obtained from early-stage (Phase 1) trials in the United States and Japan.
as §1
Overall, peripheral neuropathy, such as numbness, paresthesia or tingling, was reported in 54.5% of patients (30 patients, all severities) in the Phase I studies. The majority of neurotoxicity events experienced was mild in severity where 38.2% of patients (21 patients) reported Grade 1 neurotoxicity.

cancer patients = test: Individual patient cases (Examples 2 to 7): BNP7787 with paclitaxel and cisplatin; format: in vivo, human; settings: for tumor response: with paclitaxel and cisplatin; for peripheral neurotoxicity: 3 cycles
Experimental: A patient with adenocarcinoma of unknown origin presented with a pituitary mass and supraclavicular and mediastinal lymph nodes. They received the following treatment regimen every 3 weeks: a single dose of paclitaxel (175 mg/m^2) administered IV over 3 hours, pre-cisplatin saline hydration (500 mL 0.9% NaCl) for 1 hour, a single dose of BNP7787 (18.4 g/m^2) administered IV over 15 minutes, immediately followed by a single dose of cisplatin (75 mg/m^2) administered IV over 1 hour and subsequently post-cisplatin saline hydration (250 mL 0.9% NaCl) for 30 minutes. The patient received a total of six cycles of study treatment and experienced peripheral neuropathy (NCI-CTC Grade 2) during Cycles 4 through 6.
A patient with adenocarcinoma of gastric origin received the following treatment regimen every 3 weeks: a single dose of paclitaxel (175 mg/m^2) administered IV over 3 hours, pre-cisplatin saline hydration (500 mL 0.9% NaCl) for 1 hour, a single dose of BNP7787 (18.4 g/m^2) administered IV over 15 minutes, immediately followed by a single dose of cisplatin (75 mg/m^2) administered IV over 1 hour and subsequently post-cisplatin saline hydration (250 mL 0.9% NaCl) for 30 minutes.
A patient with adenocarcinoma of unknown origin presented with retroperitoneal and lung masses. They received the following treatment regimen every 3 weeks: a single dose of paclitaxel (175 mg/m^2) administered IV over 3 hours, pre-cisplatin saline hydration (250 mL 0.9% NaCl) for 30 minutes, a single dose of BNP7787 (18.4 g/m^2) administered IV over 15 minutes, immediately followed by a single dose of cisplatin (75 mg/m^2) administered IV over 1 hour and subsequently post-cisplatin saline hydration (250 mL 0.9% NaCl) for 30 minutes. The patient received a total of six cycles of study treatment and experienced Grade 1 numbness and tingling (peripheral neuropathy) beginning Day 2 of Cycle 1 which resolved on Day 5. The patient again experienced Grade 1 peripheral neuropathy during Cycle 4.
(§2) A patient with adenocarcinoma of the lung received the following treatment regimen every 3 weeks: a single dose of paclitaxel (175 mg/m^2) administered IV over 3 hours, pre-cisplatin saline hydration for 1 hour, immediately followed by a single dose of BNP7787 (18.4 g/m^2) administered IV over 30 minutes, a single dose of cisplatin (75 mg/m^2) administered IV over 1 hour and subsequently post-cisplatin saline hydration for 1.5 hours.
as §2, with “hours. The patient received a total of 3 cycles of study treatment and experienced Grade 1 peripheral neurotoxicity beginning on Day 6 of Cycle 3, which resolved on Day 20 of Cycle 3.” for “hours.”
as §2, with “large cell carcinoma” for “adenocarcinoma”, “hours. The patient received a total of 3 cycles of study treatment and experienced Grade 1 peripheral neurotoxicity beginning on Day 5 of Cycle 2.” for “hours.”

[4] = Overall (US & Japan) (n = 55), all doses 4.1 to 41.0 g/m^2, with paclitaxel and cisplatin
[5] = Phase I studies US & Japan, with paclitaxel and cisplatin

SMILES: CC(=O)O[C@H]1C(=O)[C@@]2(C)[C@H]([C@H](OC(=O)c3ccccc3)[C@]3(O)C[C@H](OC(=O)[C@H](O)[C@@H](NC(=O)c4ccccc4)c4ccccc4)C(C)=C1C3(C)C)[C@]1(OC(C)=O)CO[C@@H]1C[C@@H]2O [Paclitaxel, paclitaxel, reference compound]
- latent period (female Wistar rats; paclitaxel alone, day 9 post-treatment): 18.9 ± 1.4 s
- latent period (female Wistar rats; paclitaxel alone, day 10 post-treatment): 19.9 ± 2.2 s
- latent period (female Wistar rats; paclitaxel alone, day 11 post-treatment): 19.4 ± 2.4 s
- latent periods compared with control groups (female Wistar rats; paclitaxel alone, p<0.01, student's t-test or Man-Whitney U-test): significantly elongated
- latent period (female Wistar rats; paclitaxel alone, prior to the initiation of paclitaxel administration (pretreatment)): 9.4 ± 1.0 s

SMILES: O=S(=O)([O-])CCSSCCS(=O)(=O)[O-].[Na+].[Na+] [2,2′-dithiobis ethane sulfonate]
- Incidence of neurotoxicity, Neurotoxicity Grade (NCI-CTC) 1 [1]: 8 (22.2) Number (%) of Patients
- Incidence of neurotoxicity, Neurotoxicity Grade (NCI-CTC) 2 [1]: 8 (22.2) Number (%) of Patients
- Incidence of neurotoxicity, Neurotoxicity Grade (NCI-CTC) 3 [1]: 0 (0.0) Number (%) of Patients
- Incidence of neurotoxicity, Neurotoxicity Grade (NCI-CTC) 4 [1]: 0 (0.0) Number (%) of Patients
- Incidence of neurotoxicity, Neurotoxicity Grade (NCI-CTC) ≧2 [1]: 8 (22.2) Number (%) of Patients
- Incidence of neurotoxicity, Overall (all grades) [1]: 16 (44.0) Number (%) of Patients
- Incidence of neurotoxicity, Neurotoxicity Grade (NCI-CTC) 1 [2]: 13 (68.4) Number (%) of Patients
- Incidence of neurotoxicity, Neurotoxicity Grade (NCI-CTC) 2 [2]: 1 (5.2) Number (%) of Patients
- Incidence of neurotoxicity, Neurotoxicity Grade (NCI-CTC) 3 [2]: 0 (0.0) Number (%) of Patients
- Incidence of neurotoxicity, Neurotoxicity Grade (NCI-CTC) 4 [2]: 0 (0.0) Number (%) of Patients
- Incidence of neurotoxicity, Neurotoxicity Grade (NCI-CTC) ≧2 [2]: 1 (5.2) Number (%) of Patients
- Incidence of neurotoxicity, Overall (all grades) [2]: 14 (73.6) Number (%) of Patients
- Incidence of neurotoxicity, Neurotoxicity Grade (NCI-CTC) 1 [3, 4]: 21 (38.2) Number (%) of Patients
- Incidence of neurotoxicity, Neurotoxicity Grade (NCI-CTC) 2 [3, 4]: 9 (16.4) Number (%) of Patients
- Incidence of neurotoxicity, Neurotoxicity Grade (NCI-CTC) 3 [3, 4]: 0 (0.0) Number (%) of Patients
- Incidence of neurotoxicity, Neurotoxicity Grade (NCI-CTC) 4 [3, 4]: 0 (0.0) Number (%) of Patients
- Incidence of neurotoxicity, Neurotoxicity Grade (NCI-CTC) ≧2 [3, 4]: 9 (16.4) Number (%) of Patients
- Incidence of neurotoxicity, Overall (all grades) [3, 4]: 30 (54.5) Number (%) of Patients
- incidence of moderate to severe (≧Grade 2) neurotoxicity [3, 5]: 16.4%
- overall incidence of neurotoxicity (peripheral neuropathy, all severities), patients [3, 5]: 54.5%
- patients who reported Grade 1 neurotoxicity [3, 5]: 38.2%
- patients who reported Grade 2 peripheral neuropathy [3, 5]: 16.4%
- Grade 3 or 4 neurotoxicity ([3]; Phase I studies, including patients who received up to 9 cycles of chemotherapy): No patient experienced Grade 3 or 4 neurotoxicity
- peripheral neuropathy as dose limiting toxicity ([3]; administered concurrently with paclitaxel and cisplatin chemotherapy): not a dose limiting toxicity
- effect on incidence of neurotoxicity versus historical control ([3]; concurrent administration with cisplatin and paclitaxel chemotherapy): decreases the incidence of neurotoxicity
- Inhibition Rate (of latent period elongation) (female Wistar rats; 500 mg/kg iv with paclitaxel 6 mg/kg, Day 9): (17.8) %
- Inhibition Rate (of latent period elongation) (female Wistar rats; 500 mg/kg iv with paclitaxel 6 mg/kg, Day 10): (18.0) %
- Inhibition Rate (of latent period elongation) (female Wistar rats; 500 mg/kg iv with paclitaxel 6 mg/kg, Day 11): (19.4) %
- Inhibition Rate (of latent period elongation) (female Wistar rats; 1,000 mg/kg iv with paclitaxel 6 mg/kg, Day 9): (43.3) %
- Inhibition Rate (of latent period elongation) (female Wistar rats; 1,000 mg/kg iv with paclitaxel 6 mg/kg, Day 10): (38.0) %
- Inhibition Rate (of latent period elongation) (female Wistar rats; 1,000 mg/kg iv with paclitaxel 6 mg/kg, Day 11): (51.0) %
- effect on elongation of the latent period (female Wistar rats; 1000 mg/kg, day 9, p<0.05, Dunnet test): significant suppressing effects
- effect on latent period (female Wistar rats; groups receiving 500 mg/kg or 1000 mg/kg in advance of paclitaxel): suppressing tendency as a whole
- effect on paclitaxel-induced abnormal thermoesthesia (female Wistar rats; overall conclusion of Example 1): mitigates effectively
- tumor response (cancer patients; Example 2: after Cycle 2, confirmed after Cycles 4 and 6): complete response
- peripheral neuropathy (NCI-CTC) (cancer patients; Example 2: person, adenocarcinoma of unknown origin, 18.4 g/m^2, six cycles, during Cycles 4 through 6): Grade 2
- peripheral neuropathy (cancer patients; Example 3: person, adenocarcinoma of gastric origin, 18.4 g/m^2, five cycles): no peripheral neuropathy
- tumor response (cancer patients; Example 3: stable Cycles 2 through 4, progression following Cycle 5, listed as BNP7787): stable disease; also recorded: progressive disease
- tumor response (cancer patients; Example 4: partial after Cycle 2, complete after Cycle 6, listed as BNP7787): partial response; also recorded: complete response
- peripheral neuropathy (numbness and tingling) (cancer patients; Example 4: person, adenocarcinoma of unknown origin, 18.4 g/m^2, six cycles, Cycle 1 Day 2 to 5 and Cycle 4): Grade 1
- tumor response (cancer patients; Example 5: after Cycles 2 and 3): partial response
- peripheral neurotoxicity (cancer patients; Example 5: person, adenocarcinoma of the lung, 18.4 g/m^2): no peripheral neurotoxicity
- tumor response (cancer patients; Example 6: after Cycles 2 and 3): partial response
- peripheral neurotoxicity (cancer patients; Example 6: person, adenocarcinoma of the lung, 18.4 g/m^2, Day 6 to Day 20 of Cycle 3): Grade 1
- peripheral neurotoxicity (cancer patients; Example 7: person, large cell carcinoma of the lung, 18.4 g/m^2, beginning Day 5 of Cycle 2): Grade 1
- tumor response (cancer patients; Example 7): stable disease
